Experimental data taken from patent publication US20250163006A1, “New Coolants, and Preparations Containing Same” (Symrise AG, priority 2022, published 2025).

Each compound was assayed against T1, human TRPM8 receptor (Homo sapiens, UniProt Q7Z2W7) (assay: Assay on TRPM8 modulators: Ca2+-sensitive dye (Fluo-4) fluorescence in HEK293-TRPM8 test cells). Settings: HEK293 cells recombinantly expressing human TRPM8.
T1 construct: expressed in transfected cells; host or cells: HEK293, stably transfected, tetracycline-inducible expression
Type: cell-based
Parameters: relative TRPM8 activation: concentration or dose not given beside the values
Excerpt: The starting point for cloning the human TRPM8 receptor is an LnCaP cDNA bank. This is commercially available (e.g. BioChain, Hayward, USA) or can be produced from the andro gene-sensitive human prostate adenocarcinoma cell line LnCaP (e.g. ATCC, CRL1740 or ECACC, 891 1021 1) using standard kits.
The coding TRPM8 sequence (see e.g. http://www. ncbi.nlm.nih.gov/entrez/viewer.fcgi?db=nuccore&id=109689694) can be PCR-amplified and cloned using standard methods. The human TRPM8 gene isolated in this way was used to produce the plasmid plnd_M8. Alternatively, the TRPM8 gene can also be produced synthetically.
A stably transfected HEK293 cell line was produced as a test cell system using human TRPM8 DNA. Preference was given to HEK293, which offers the possibility of inducing TRPM8 expression using tetracycline via the plasmid introduced.
A test similar to the test already described in the literature by Behrendt H. J. et al, Br. J. Pharmacol. 141, 2004, 737-745, is performed. The agonization or antagonization of the receptor can be quantified using a Ca^2+-sensitive dye (e.g. FURA, Fluo-4 etc.). Agonists alone cause an increase in the Ca^2+ signal; antagonists cause a reduction in the Ca^2+ signal in the presence of e.g. menthol (detected in each case using the Fluo-4 dye, which has different fluorescence properties due to Ca^2+ ions).
First, a fresh culture of transformed HEK cells is prepared in cell culture flasks in the usual way. The HEK293-TRPM8 test cells are detached from the cell culture flasks using trypsin and 40,000 cells/well are seeded with 100 μl medium in 96-well plates (Greiner #655948 poly-D-lysine-coated). To induce the TRPM8 receptor, tetracycline is added to the growth medium (DMEM/HG, 10% FCS tetracycline-free, 4 mM L-glutamine, 15 μg/ml blasticidin, 100 μg/ml hygromycin B, 1 μg/ml tetracycline).
On the following day, the cells are loaded with Fluo-4AM dye and the test is performed. Proceed as follows: Addition of 100 μl/well staining solution Ca-4 kit (RB 141, Molecular Devices) to each 100 μl medium (DMEM/HG, 10% FCS tetracycline-free, 4 mM L-glutamine, 15 μg/ml blasticidin, 100 μg/ml hygromycin B, 1 μg/ml tetracycline).
Incubation in incubator, 30 minutes/37° C./5% CO2, 30 minutes/RT.
Preparation of the test substances (different concentrations in 200 μl HBSS buffer), as well as positive controls (different concentrations of menthol, icilin or lonomycin in 200 μl HBSS buffer) and negative controls (only 200 μl HBSS buffer) Addition of the test substances in quantities of 50 μl/well and measurement of the fluorescence change (e.g. in the assay device FLIPR, Molecular Devices or NovoStar, BMG) at 485 nm excitation, 520 nm emission, and evaluation of the potency of the different substances/concentrations and determination of the ECG. e.g. in the FLIPR assay device, Molecular Devices or NovoStar, BMG) at 485 nm excitation, 520 nm emission, and evaluation of the potency of the various substances/concentrations and determination of the EC50 values.
The test substances are used in triplicates in concentrations of 0.1-200 μM in the assay. Normally, the compounds are kept ready in DMSO solutions and diluted down to a maximum DMSO concentration of 2% for the assay.
The activity of the active substances in relation to activation of the TRPM8 channel is determined using the assay described. This is done in a concentration-dependent manner. For each active substance, 6 to 10 concentrations are measured as standard. A mathematical method (4-parameter or 5-parameter logistic curve fitting) can be used to determine the EC50 value as the inflection point of the sigmoidal curve from the activity values determined. These are standard biochemical methods that are familiar to experts.

T1 sequence (Q7Z2W7 whole entry): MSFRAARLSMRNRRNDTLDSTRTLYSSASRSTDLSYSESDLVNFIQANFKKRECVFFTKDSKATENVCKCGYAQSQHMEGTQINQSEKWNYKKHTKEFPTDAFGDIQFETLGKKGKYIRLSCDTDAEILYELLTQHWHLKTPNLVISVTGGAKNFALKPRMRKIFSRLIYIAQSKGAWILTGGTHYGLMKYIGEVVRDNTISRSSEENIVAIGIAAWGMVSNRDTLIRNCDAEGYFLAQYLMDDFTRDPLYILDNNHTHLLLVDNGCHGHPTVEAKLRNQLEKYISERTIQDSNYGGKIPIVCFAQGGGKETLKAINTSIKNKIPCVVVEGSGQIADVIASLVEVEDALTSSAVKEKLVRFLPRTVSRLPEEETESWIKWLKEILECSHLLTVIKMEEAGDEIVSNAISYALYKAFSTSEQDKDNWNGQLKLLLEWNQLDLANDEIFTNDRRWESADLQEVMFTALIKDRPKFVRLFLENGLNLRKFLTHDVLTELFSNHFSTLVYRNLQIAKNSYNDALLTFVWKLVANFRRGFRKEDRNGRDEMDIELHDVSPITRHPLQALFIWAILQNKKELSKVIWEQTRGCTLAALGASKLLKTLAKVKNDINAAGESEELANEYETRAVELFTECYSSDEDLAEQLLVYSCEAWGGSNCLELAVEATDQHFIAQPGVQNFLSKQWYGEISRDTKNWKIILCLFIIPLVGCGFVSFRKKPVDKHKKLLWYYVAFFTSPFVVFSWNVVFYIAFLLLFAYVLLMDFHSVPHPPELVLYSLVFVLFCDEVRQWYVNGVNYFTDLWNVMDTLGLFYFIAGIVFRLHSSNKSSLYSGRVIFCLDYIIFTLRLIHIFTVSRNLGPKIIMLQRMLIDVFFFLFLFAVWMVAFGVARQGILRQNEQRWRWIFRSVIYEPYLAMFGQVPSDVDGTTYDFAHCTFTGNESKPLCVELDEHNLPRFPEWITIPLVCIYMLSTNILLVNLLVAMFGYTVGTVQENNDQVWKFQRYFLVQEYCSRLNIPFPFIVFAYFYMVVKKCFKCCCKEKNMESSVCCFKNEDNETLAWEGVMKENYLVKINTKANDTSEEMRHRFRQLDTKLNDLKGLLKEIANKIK

Point of comparison: `OCCSc1nc(-c2ccccc2)c(-c2ccccc2)o1` [Compound A-60, 2-(4,5-diphenyloxazol-2-yl) sulfanylethanol], “relative TRPM8 activation” value 0%. Against it:
- COC(=O)Nc1nnc(-c2ccccc2)c(-c2ccccc2)n1 [Compound B-41, methyl N-(5,6-diphenyl-1,2,4-triazin-3-yl)carbamate] — higher, 8%
- Cc1nc(SC(C)C(=O)NC2CC2)[nH]c1C (centres unmarked) [Compound A-56, N-cyclopropyl-2-[(4,5-dimethyl-1H-imidazol-2-yl)sulfanyl] propanamide] — higher, 1%
- CNC(=O)CCCc1nc(-c2ccccc2)c(-c2ccccc2)o1 [Compound A-36, 4-(4,5-diphenyloxazol-2-yl)-N-methyl-butanamide] — higher, 12%
- COCCNC(=O)CSc1nc(-c2ccccc2)c(-c2ccccc2)o1 [Compound A-53, 2-(4,5-diphenyloxazol-2-yl)sulfanyl-N-(2-methoxyethyl) acetamide] — higher, 1%
- CNC(=O)C(C)Oc1nnc(-c2ccccc2)c(-c2ccccc2)n1 (centres unmarked) [Compound B-57, 2-[(5,6-diphenyl-1,2,4-triazin-3-yl)oxy]-N-methyl-propanamide] — higher, 2%
- CNC(=O)C(C)Sc1nc(-c2ccc(C)cc2)c(-c2ccc(C)cc2)o1 (centres unmarked) [Compound A-25, 2-[4,5-bis (p-tolyl)oxazol-2-yl]sulfanyl-N-methyl-propanamide] — higher, 55%
- O=C(CSc1cnc(-c2ccccc2)c(-c2ccccc2)n1)NC1CC1 [Compound B-24, N-cyclopropyl-2-(5,6-diphenylpyrazin-2-yl)sulfanyl-acetamide] — higher, 68%
- CNC(=O)C(C)Sc1nncc(-c2ccccc2)n1 (centres unmarked) [Compound B-34, N-methyl-2-[(5-phenyl-1,2,4-triazin-3-yl)sulfanyl]propanamide] — higher, 25%
- CNC(=O)COc1nnc(-c2ccccc2)c(-c2ccccc2)n1 [Compound B-52, 2-[(5,6-diphenyl-1,2,4-triazin-3-yl)oxy]-N-methyl-acetamide] — higher, 3%
- CCCCNC(=O)CSc1nc(-c2ccccc2)c(-c2ccccc2)o1 [Compound A-70, N-butyl-2-(4,5-diphenyloxazol-2-yl)sulfanyl-acetamide] — lower, −2%
- CNC(=O)CSc1ncc(-c2ccccc2)[nH]1 [Compound A-64] — lower, −1%
- CNC(=O)CSc1nc(-c2ccc(C)cc2)c(-c2ccc(C)cc2)o1 [Compound A-68, 2-[4,5-bis(p-tolyl)oxazol-2-yl]sulfanyl-N-methyl-acetamide] — lower, −2%
- CC(Sc1nnc(-c2ccccc2)c(-c2ccccc2)n1)C(=O)NCc1ccco1 (centres unmarked) [Compound B-28, 2-[(5,6-diphenyl-1,2,4-triazin-3-yl)sulfanyl]-N-(2-furylmethyl)propanamide] — higher, 53%
- CCC(=O)Nc1nnc(-c2ccccc2)c(-c2ccccc2)n1 [Compound B-47, N-(5,6-diphenyl-1,2,4-triazin-3-yl)propanamide] — higher, 4%
- CNC(=O)CCSc1nc(-c2ccccc2)c(-c2ccccc2)o1 [Compound A-49, 3-(4,5-diphenyloxazol-2-yl)sulfanyl-N-methyl-propanamide] — higher, 2%
- CC(Sc1nnc(-c2ccccc2)c(-c2ccccc2)n1)C(=O)O (centres unmarked) [Compound B-44, 2-[(5,6-diphenyl-1,2,4-triazin-3-yl)sulfanyl]propanoic acid] — higher, 5%

Same assay, conditions: TRPM8 activation, HEK293-TRPM8 cells, 6 to 10 concentrations, logistic curve fitting; read-out: EC50 value

Work on `O=C(CSc1nc(-c2ccccc2)c(-c2ccccc2)o1)NC1CC1` [Compound A-06, N-cyclopropyl-2-(4,5-diphenyloxazol-2-yl)sulfanyl-acetamide] yielded an EC50 of at most 1000 nM.

Same assay, conditions: Table 6; HEK293-TRPM8 cells; read-out: TRPM8 EC50

In the case of `O=C(CSc1nc(-c2ccccc2)c(-c2ccccc2)o1)NC1CC1` [Compound A-06, N-cyclopropyl-2-(4,5-diphenyloxazol-2-yl)sulfanyl-acetamide], the EC50 is reported as 340 nM.

Same assay, conditions: Table 8; HEK293-TRPM8 cells; read-out: TRPM8 EC50

Compound `O=C(CSc1nc(-c2ccccc2)c(-c2ccccc2)o1)NC1CC1` [Compound A-06, N-cyclopropyl-2-(4,5-diphenyloxazol-2-yl)sulfanyl-acetamide] has an EC50 of 340 nM.
